Earlier results in patent publication US8716182B2, “Liquid aqueous crop protection formulations” (BASF SE, priority 2008, dated 2014).

Conditions: miscible means fully miscible with water

Row | SMILES | solubility in water at 20° C.
1 | OCCOc1ccccc1 [Agrisol PX401, 2-phenoxyethanol] | (24 g/l)
2 | COCC(C)OC(C)=O (stereo not shown) [Arcosolv ® PMA, 1-methoxy-2-propanol acetate] | acetate)(400 g/l)
3 | C[S+](C)[O-] [DMSO, dimethyl sulfoxide] | (miscible)
4 | CCCOC(=O)C(C)O (stereo not shown) [Purasolv ® NPL, n-propyl lactate] | (miscible)
5 | OCC1CCCO1 (stereo not shown) [tetrahydrofurfuryl alcohol] | (miscible)
6 | CC(=O)OCC(COC(C)=O)OC(C)=O [triacetin] | (64 g/l)
7 | O=C1CCCO1 [γ-butryrolacton, γ-butyrolactone] | (miscible)
